Experiments:
[1] = target: Cyclin-dependent kinase 9 (Homo sapiens, UniProt P50750)
[2] = target: Serine/threonine-protein kinase pim-1 (Homo sapiens, UniProt P11309); assay: Inhibition of PIM1 (unknown origin)
Chain of Serine/threonine-protein kinase pim-1 (P11309 whole entry): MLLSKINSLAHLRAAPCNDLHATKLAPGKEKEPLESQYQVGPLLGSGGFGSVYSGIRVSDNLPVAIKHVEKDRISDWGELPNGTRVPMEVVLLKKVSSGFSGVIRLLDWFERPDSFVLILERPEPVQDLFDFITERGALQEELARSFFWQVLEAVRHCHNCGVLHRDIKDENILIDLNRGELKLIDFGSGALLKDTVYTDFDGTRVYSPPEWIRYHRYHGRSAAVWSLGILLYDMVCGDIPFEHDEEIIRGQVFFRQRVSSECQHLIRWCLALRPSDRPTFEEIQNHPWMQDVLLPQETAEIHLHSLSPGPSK

Chain of Cyclin-dependent kinase 9 (P50750 whole entry): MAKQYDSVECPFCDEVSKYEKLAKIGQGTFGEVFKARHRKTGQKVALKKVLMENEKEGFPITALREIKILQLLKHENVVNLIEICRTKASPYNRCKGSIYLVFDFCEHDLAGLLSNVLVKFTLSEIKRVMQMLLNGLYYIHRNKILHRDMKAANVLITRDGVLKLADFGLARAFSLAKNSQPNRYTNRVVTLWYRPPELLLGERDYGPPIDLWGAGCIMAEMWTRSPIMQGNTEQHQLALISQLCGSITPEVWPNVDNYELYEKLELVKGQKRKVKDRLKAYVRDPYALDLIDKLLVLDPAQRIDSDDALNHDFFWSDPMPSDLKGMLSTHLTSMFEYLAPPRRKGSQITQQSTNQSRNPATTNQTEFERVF

Row | SMILES | IC50 [1] | IC50 [2]
1 | NC(=O)c1cc(-c2ccnc(N)n2)[nH]c1-c1ccc(Cl)cc1Cl | 10 nM | 
2 | CN1CCN(c2nc(C3=C(c4c[nH]c5ccccc45)C(=O)NC3=O)c3ccccc3n2)CC1 [SOTRASTAURIN] |  | 50.1 nM
3 | Cc1n[nH]c2ccc(-c3cccnc3)cc12 | 631 nM | 

Reference: ChEMBL document CHEMBL2417410, “Selectivity data: assessment, predictions, concordance, and implications” (J Med Chem, 2013)
